Drawing on patent publication US20100324086A1, “COMPOUNDS AND METHODS” (Novasaid AB, priority 2008, published 2010), this text covers IC50 for 38 compounds.

Each structure is given as a SMILES string. pIC50: −log10 of the molar value.

In general, pIC50 refers to the negative decadic logarithm of the IC50, by convention in mol/L.

In the test the target is T1, recombinant, membrane-bound mPGES-1 (Homo sapiens, UniProt O14684).
T1 sequence (O14684 1-152): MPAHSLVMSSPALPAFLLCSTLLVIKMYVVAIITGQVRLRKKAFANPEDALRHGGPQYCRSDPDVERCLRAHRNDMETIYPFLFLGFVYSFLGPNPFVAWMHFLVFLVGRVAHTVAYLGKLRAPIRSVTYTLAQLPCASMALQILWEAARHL
Briefly: Thiobarbituric acid assay (TBA-MDA assay), inhibition of mPGES-1. The settings on record: remaining PGH2 measured at 535 nm. Type of test: biochemical. An excerpt: Malondialdehyde is a product of lipid peroxidation and reacts with thiobarbituric acid forming a red product that absorbs at 535 nm (W. G. Niehaus, Jr and B. Samuelsson, Eur. J. Biochem 6, 126 (1968). The extinction coefficient of the TBA-MDA conjugate is 1.56×10^5 M^−1 cm^−1 (E. D. Wills. Biochem. J. 113, 315 (1969).
The method used for detection of inhibition of mPGES-1 is based on the detection of the amount of remaining PGH2. This method was described more than 20 years ago by Basevich et al (Bioorg. Khim. 1983, 9(5), 658-665.
The assay used was a modified variant and used citric acid instead of the TCA-TBA-HCl reagent described in the original assay. In this assay recombinant, membrane-bound mPGES-1 was incubated with PGH2. The reaction was stopped by adding citric acid with a final pH of 3 and a large excess of FeCl2 (20 mM) to convert any remaining PGH2 into MDA and […]. TBA reagent was finally added (0.67%) and the samples were heated at 80° C. for 30 min. The absorbance of the conjugate was measured at 535 nm.
The product of mPGES-1 (PGE2) was not measured directly in this assay, but rather the remaining substrate (PGH2) indirectly by adding FeCl2 that converts PGH2 into […] and 12-HHT. As a positive control a known mPGES-1 inhibitor, MK-886, was used and the new inhibitors were compared with the inhibition of MK-886 (% of MK-886 inhibition).
In the case of `O=C(NCc1ccccc1C(F)(F)F)c1cccc(NC(=O)c2ccccc2C(F)(F)F)c1` [Compound 134, 3-(2-Trifluoromethyl-benzoylamino)-N-(2-trifluoromethyl-benzyl)-benzamide], the pIC50 was 7.15.

As for `Cc1ccccc1C(=O)Nc1cccc(C(=O)NC2CCCCCC2)c1` [Compound 57, N-(3-Cycloheptylcarbamoyl-phenyl)-2-methylbenzamide], the pIC50 was 6.41.

Consider `O=C(NCc1cccc2ccccc12)c1cccc(NC(=O)c2ccccc2C(F)(F)F)c1` [Compound 109, N-{3-[(Naphthalen-1-ylmethyl)-carbamoyl]-phenyl}-2-trifluoromethyl-benzamide], for which the pIC50 was 6.89.

For the compound `O=C(Nc1ccc2ccccc2n1)c1cccc(NC(=O)c2ccccc2C(F)(F)F)c1` [Compound 43, 3-(2-Trifluoromethyl-benzoylamino)-N-quinolin-2-yl-benzamide], the pIC50 is 6.72.

For `COc1cccc(OC)c1C(=O)Nc1cccc(C(=O)NCc2cccc3ccccc23)c1` [Compound 108, 2,6-Dimethoxy-N-{3-[(naphthalen-1-ylmethyl)-carbamoyl]-phenyl}-benzamide], the pIC50 was 5.66.

For `O=C(Nc1ccc2ccccc2n1)c1cccc(NC(=O)c2ccccc2Cl)c1` [Compound 9, 3-(2-Chloro-benzoylamino)-N-(quinolin-2-yl-)-benzamide], the pIC50 was 6.22.

Consider `Cc1ccccc1CNC(=O)c1cccc(NC(=O)c2ccccc2C(F)(F)F)c1` [Compound 142, N-(2-Methyl-benzyl)-3-(2-trifluoromethyl-benzoylamino)-benzamide], for which the pIC50 is 6.00.

On to `O=C(NCc1cccc(-c2ccccc2)c1)c1cccc(NC(=O)c2ccccc2C(F)(F)F)c1` [Compound 137, N-(3-Phenyl-benzyl)-3-(2-trifluoromethyl-benzoylamino)-benzamide], for which the pIC50 was 6.49.

Turning to `CCCCNC(=O)c1cccc(NC(=O)c2ccccc2Cl)c1` [Compound 4, 3-(2-Chloro-benzoylamino)-N-butyl-benzamide], the pIC50 was 5.41.

Regarding `O=C(Nc1ccc2ccccc2n1)c1cccc(NC(=O)c2ccccc2-c2cccs2)c1` [Compound 49, 3-(2-Thiophene-2-yl-benzoylamino)-N-quinolin-2-yl-benzamide], the pIC50 is 5.92.

With `COc1cccc(OC)c1C(=O)Nc1cccc(C(=O)NC2CCCCCC2)c1` [Compound 65, N-(3-Cycloheptylcarbamoyl-phenyl)-2,6-dimethoxy-benzamide], the pIC50 was 5.16.

As for `CCc1ccccc1C(=O)Nc1cccc(C(=O)Nc2ccc3ccccc3n2)c1` [Compound 52, 3-(2-Ethyl-benzoylamino)-N-quinolin-2-yl-benzamide], the pIC50 is 5.16.

Consider `O=C(NC(c1ccccc1)c1ccccc1)c1cccc(NC(=O)c2ccccc2Cl)c1` [Compound 6, 3-(2-Chloro-benzoylamino)-N-(diphenylyl-methyl)-benzamide], for which the pIC50 is 6.52.

Consider `C[C@@H](NC(=O)c1cccc(NC(=O)c2ccccc2F)c1)c1cccc2ccccc12` [Compound 88, 2-Fluoro-N-[3-((R)-1-naphthalen-1-yl-ethylcarbamoyl)-phenyl]-benzamide], for which the pIC50 was 5.64.

On to `O=C(NCc1ccccc1)c1cccc(NC(=O)c2ccccc2C(F)(F)F)c1` [Compound 141, N-(Benzyl)-3-(2-trifluoromethyl-benzoylamino)-benzamide], for which the pIC50 is 6.55.

On to `Cc1ccccc1C(=O)Nc1cccc(C(=O)N[C@@H](C)c2cccc3ccccc23)c1` [Compound 78, 2-Methyl-N-[3-((S)-1-naphthalen-1-yl-ethylcarbamoyl)-phenyl]-benzamide], for which the pIC50 was 6.16.

Turning to `O=C(NCc1ccccc1Cl)c1cccc(NC(=O)c2ccccc2C(F)(F)F)c1` [Compound 143, N-(2-Chloro-benzyl)-3-(2-trifluoromethyl-benzoylamino)-benzamide], the pIC50 was 6.66.

Turning to `C[C@@H](NC(=O)c1cccc(NC(=O)c2c(Cl)cccc2Cl)c1)c1cccc2ccccc12` [Compound 89, 2,6-Dichloro-N-[3-((R)-1-naphthalen-1-yl-ethylcarbamoyl)-phenyl]-benzamide], the pIC50 was 6.22.

Turning to `C[C@H](NC(=O)c1cccc(NC(=O)c2ccccc2Br)c1)c1cccc2ccccc12` [Compound 72, 2-Bromo-N-[3-((S)-1-naphthalen-1-yl-ethylcarbamoyl)-phenyl]-benzamide], the pIC50 was 6.64.

For `O=C(NCc1cccc2ccccc12)c1cccc(NC(=O)c2c(Cl)cccc2Cl)c1` [Compound 105, 2,6-Dichloro-N-{3-[(naphthalen-1-ylmethyl)-carbamoyl]-phenyl}-benzamide], the pIC50 is 6.28.

As for `COc1cccc(OC)c1C(=O)Nc1cccc(C(=O)Nc2ccc3ccccc3n2)c1` [Compound 42, 3-(2,6-Dimethoxy-benzoylamino)-N-quinolin-2-yl-benzamide], the negative-log IC50 (pIC50) was 5.51.

For `O=C(Nc1cccc(C(=O)NC2CCCCCC2)c1)c1cc(C(F)(F)F)cc(C(F)(F)F)c1` [Compound 54, N-(3-Cycloheptylcarbamoyl-phenyl)-3,5-bis-trifluoromethyl-benzamide], the pIC50 is 5.92.

Consider `O=C(NC1CCCCCC1)c1cccc(NC(=O)c2ccccc2I)c1` [Compound 69, N-(3-Cycloheptylcarbamoyl-phenyl)-2-iodo-benzamide], for which the pIC50 was 6.59.

Regarding `O=C(NCc1ccccc1OC(F)(F)F)c1cccc(NC(=O)c2ccccc2C(F)(F)F)c1` [Compound 147, N-(2-Trifluoromethoxy-benzyl)-3-(2-trifluoromethyl-benzoylamino)-benzamide], the negative logarithm of the IC50 (pIC50) is 6.96.

`O=C(NC1CCCCCC1)c1cccc(NC(=O)c2c(Cl)cccc2Cl)c1` [Compound 55, 2,6-Dichloro-N-(3-cycloheptylcarbamoyl-phenyl)-benzamide]: the pIC50 is 6.20.

As to `C[C@H](NC(=O)c1cccc(NC(=O)c2ccccc2Cl)c1)c1cccc2ccccc12` [Compound 85, 2-Chloro-N-[3-((S)-1-naphthalen-1-yl-ethylcarbamoyl)-phenyl]-benzamide], the pIC50 was 6.43.

`O=C(NCc1cccc2c1OCCO2)c1cccc(NC(=O)c2ccccc2C(F)(F)F)c1` [Compound 148, N-(2,3-dihydro-benzo[1,4]dioxin-5-ylmethyl)-3-(2-trifluoromethyl-benzoylamino)-benzamide]: the pIC50 is 6.00.

In the case of `O=C(NCc1cccc2ccccc12)c1cccc(NC(=O)c2ccccc2I)c1` [Compound 112, 2-Iodo-N-{3-[(naphthalen-1-ylmethyl)-carbamoyl]-phenyl}-benzamide], the pIC50 was 6.66.

Regarding `C[C@@H](NC(=O)c1cccc(NC(=O)c2ccccc2I)c1)c1cccc2ccccc12` [Compound 96, 2-Iodo-N-[3-((R)-1-naphthalen-1-A-ethylcarbamoyl)-phenyl]-benzamide], the negative-log IC50 (pIC50) is 6.64.

On to `COc1ccccc1C(=O)Nc1cccc(C(=O)Nc2ccc3ccccc3n2)c1` [Compound 41, 3-(2-Methoxy-benzoylamino)-N-quinolin-2-yl-benzamide], for which the pIC50 is 5.43.

`O=C(NCc1cccc2ccccc12)c1cccc(NC(=O)c2ccccc2-c2cccs2)c1` [Compound 116, N-{3-[(Naphthalen-1-ylmethyl)-carbamoyl]-phenyl}-2-thiopene-2-yl-benzamide]: the pIC50 was 5.60.

In the case of `C[C@H](NC(=O)c1cccc(NC(=O)c2ccccc2F)c1)c1cccc2ccccc12` [Compound 73, 2-Fluoro-N-[3-((S)-1-naphthalen-1-yl-ethylcarbamoyl)-phenyl]-benzamide], the pIC50 was 5.74.

For `O=C(NCc1ccccc1-c1ccccc1)c1cccc(NC(=O)c2ccccc2C(F)(F)F)c1` [Compound 136, N-(2-Phenyl-benzyl)-3-(2-trifluoromethyl-benzoylamino)-benzamide], the pIC50 was 6.70.

For `O=C(NCc1ccccc1Br)c1cccc(NC(=O)c2ccccc2C(F)(F)F)c1` [Compound 135, N-(2-Bromo-benzyl)-3-(2-trifluoromethyl-benzoylamino)-benzamide], the pIC50 was 7.19.

With `O=C(Nc1ccc(-c2ccccc2)cn1)c1cccc(NCc2ccccc2C(F)(F)F)c1` [Compound 166, 3-[2-(Trifluoromethyl)-benzylamino]-N-(5-phenyl-pyridine-2-yl)-benzamide], the pIC50 is 7.28.

For `Cc1cc(NC(=O)c2cccc(NC(=O)c3ccccc3Cl)c2)c2ccccc2n1` [Compound 3, 3-(2-Chloro-benzoylamino)-N-(2-methyl-quinolin-4-yl)-benzamide], the pIC50 is 5.96.

`COc1cccc(OC)c1C(=O)Nc1cccc(C(=O)N[C@H](C)c2cccc3ccccc23)c1` [Compound 92, 2,6-Dimethoxy-N-[3-((R)-1-naphthalen-1-yl-ethylcarbamoyl)-phenyl]-benzamide]: the pIC50 is 5.89.

Turning to `C[C@@H](NC(=O)c1cccc(NC(=O)c2ccccc2Br)c1)c1cccc2ccccc12` [Compound 87, 2-Bromo-N-[3-((R)-1-naphthalen-1-yl-ethylcarbamoyl)-phenyl]-benzamide], the pIC50 was 6.42.
